The values that follow are results of earlier work, collected in US20050281746A1, “Anticoagulant contrast media” (priority 2004, published 2005).

For data set [1] the following is noted: X-ray contrast agents grouped by ionicity and benzene rings.
For data set [2] the following is noted: X-ray contrast agents grouped by structure; classes High / Low / Iso.
For data set [3] the following is noted: X-ray contrast agents grouped by structure.

Consider `COCC(=O)Nc1c(I)c(C(=O)NCC(O)CO)c(I)c(C(=O)N(C)CC(O)CO)c1I` (centres unmarked) [Iopromide], for which the Adverse effects result in data set [1] is “Thrombotic”.

With `CC(=O)N(CC(O)CN(C(C)=O)c1c(I)c(C(=O)NCC(O)CO)c(I)c(C(=O)NCC(O)CO)c1I)c1c(I)c(C(=O)NCC(O)CO)c(I)c(C(=O)NCC(O)CO)c1I` (centres unmarked) [Iodixanol], in data set [2], the “Osmolality (mOsm/kg)” value is given as “(280) mOsm/kg”. Besides, the Adverse effects result in data set [1] was “Thrombotic”. Also, in data set [3], the “Viscosity (cps)” value is recorded as 26 cps.

As for `COCC(O)CN(C(C)=O)c1c(I)c(C(=O)NCC(O)CO)c(I)c(C(=O)NCC(O)CO)c1I` (centres unmarked) [Iopentol], the Adverse effects result in data set [1] was “Thrombotic”.

As to `CN(C(=O)CO)c1c(I)c(C(=O)NCC(O)CO)c(I)c(C(=O)NCC(O)CO)c1I` (centres unmarked) [Iomerpol], the Adverse effects result in data set [1] is given as “Thrombotic”.

`C[C@H](O)C(=O)Nc1c(I)c(C(=O)NC(CO)CO)c(I)c(C(=O)NC(CO)CO)c1I` [Iopamidol]: the Adverse effects entry in data set [1] was “Thrombotic”.

Regarding `CC(=O)N(CC(O)CO)c1c(I)c(C(=O)NCC(O)CO)c(I)c(C(=O)NCC(O)CO)c1I` (centres unmarked) [Iohexol], the Adverse effects entry in data set [1] is given as “Thrombotic”.
